Assay results taken from US20240150368A1, “ULK INHIBITORS AND METHODS OF USE THEREOF” (Deciphera Pharmaceuticals, LLC, priority 2022, published 2024).

Legend:
ULK1 kinase = molecular target: T1, ULK1 kinase (Homo sapiens, UniProt O75385, E37A/K38A); assay: Biochemical assay for ULK1 (coupled pyruvate kinase/lactate dehydrogenase assay); settings: 1 mM ATP, 0.1 nM ULK1; read-out: ULK1 (inhibition of biochemical activity), IC50
T1 construct: (residues 1-283; ID NO: 1); purchased Beryllium
T1 sequence (O75385 1-283 E37A/K38A): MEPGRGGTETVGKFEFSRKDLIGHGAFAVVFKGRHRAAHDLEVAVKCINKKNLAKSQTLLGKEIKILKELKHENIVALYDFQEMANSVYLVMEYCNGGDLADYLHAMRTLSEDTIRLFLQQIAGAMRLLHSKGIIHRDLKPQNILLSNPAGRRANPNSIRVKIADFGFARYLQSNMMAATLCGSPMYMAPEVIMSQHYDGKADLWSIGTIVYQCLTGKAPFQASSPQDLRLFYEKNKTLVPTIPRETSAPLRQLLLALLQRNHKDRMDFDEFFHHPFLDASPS
Procedure, shortened: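 IC50 values were fitted to percent inhibition, normalised with no-compound and known-inhibitor controls, using rates from 2–3 h of a 6 h read at 30 °C. ADP was coupled through pyruvate kinase/lactate dehydrogenase to NADH loss at 340 nm.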

ULK2 kinase = molecular target: T2, ULK2 kinase (Homo sapiens, UniProt Q8IYT8); assay: Biochemical assay for ULK2 (coupled pyruvate kinase/lactate dehydrogenase assay); settings: 1 mM ATP, 1 nM ULK2; read-out: ULK2 (inhibition of biochemical activity), IC50
T2 construct: (residues 1-306 with N-terminal GST and His tag; ID NO: 2); purchased Signal Chem U02-11G
T2 sequence (Q8IYT8 with tags, fused parts or gaps): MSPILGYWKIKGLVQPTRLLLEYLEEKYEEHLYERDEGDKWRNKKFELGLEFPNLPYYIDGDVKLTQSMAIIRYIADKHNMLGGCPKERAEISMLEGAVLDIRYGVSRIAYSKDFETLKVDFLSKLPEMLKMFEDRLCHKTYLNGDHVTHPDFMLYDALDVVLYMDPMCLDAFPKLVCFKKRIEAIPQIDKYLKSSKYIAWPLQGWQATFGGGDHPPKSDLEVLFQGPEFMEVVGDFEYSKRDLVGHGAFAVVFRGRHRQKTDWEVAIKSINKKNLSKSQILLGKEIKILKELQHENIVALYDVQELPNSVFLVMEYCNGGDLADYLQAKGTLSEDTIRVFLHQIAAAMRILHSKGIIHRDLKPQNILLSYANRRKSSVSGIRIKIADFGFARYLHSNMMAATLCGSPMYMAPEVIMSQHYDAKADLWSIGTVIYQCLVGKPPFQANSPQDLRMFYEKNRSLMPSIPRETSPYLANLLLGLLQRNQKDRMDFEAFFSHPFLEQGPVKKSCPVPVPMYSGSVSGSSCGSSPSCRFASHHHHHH
Procedure, shortened: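 Continuous PK/LDH-coupled NADH oxidation assay (A340) with 1 nM ULK2, 200 μM ULKtide and 1 mM ATP in Tris pH 7.5, 15 mM MgCl2, 1% DMSO, read 6 h at 30° C. Rates from the 2-3 h window converted to percent inhibition against no-compound and known-inhibitor controls; IC50 by four-parameter sigmoidal fit.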

[1] = system: ULK kinase substrate ATG13 (pS318-ATG13) in A549 (KRAS mutant) cells; assay: pATG13 levels of mutant KRas A549 cells after treatment with ULK inhibitors in combination with trametinib (ELISA); type: cell-based, human
Procedure, shortened: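 A549 cells grown overnight were treated with a test-compound dose response plus trametinib at 250 nM final (or DMSO) overnight at 37° C. Lysates were assayed by total-ATG13 capture and biotinylated pS318-ATG13 detection ELISA (450 nm minus 540 nm background); % phosphorylation versus controls gave IC50 values.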

`CC/C(Nc1cnn(C2CCN(C(C)C)CC2)c1)=C1/C(=O)Nc2ccc(C(=O)NC[C@H]3CCCO3)cc21` [Example 1, (R,Z)-3-(1-((1-(1-isopropylpiperidin-4-yl)-1H-pyrazol-4-yl)amino)propylidene)-2-oxo-N-((tetrahydrofuran-2-yl)methyl)indoline-5-carboxamide] gave an IC50 (ULK1 kinase) of no more than 10 nM, an IC50 (ULK2 kinase) of 10 to 100 nM and an IC50 [1] of 100 to 300 nM.
`CC/C(Nc1ccc(N2C[C@H]3CN(C)C[C@H]3C2)cc1)=C1/C(=O)Nc2ccc(C(=O)NCC(C)C)cc21` [Example 63] gave an IC50 (ULK1 kinase) of 10 to 100 nM, an IC50 (ULK2 kinase) of 10 to 100 nM and an IC50 [1] of no more than 100 nM.
In the case of `CC/C(Nc1ccc(N2C[C@H]3CN(C)C[C@H]3C2)cc1)=C1/C(=O)Nc2ccc(C(=O)NC[C@H]3CCCO3)cc21` [Example 64], the IC50 (ULK1 kinase) is reported as 10 to 100 nM, the IC50 (ULK2 kinase) is reported as 10 to 100 nM and the IC50 [1] is reported as no more than 100 nM.
`CC/C(Nc1ccc(N2CC3(CN(C)C3)C2)cc1)=C1/C(=O)Nc2ccc(C(=O)NCC(C)C)cc21` [Example 65] was tested, and the IC50 (ULK1 kinase) was no more than 10 nM, the IC50 (ULK2 kinase) was 10 to 100 nM and the IC50 [1] was no more than 100 nM.
`CC/C(Nc1ccc(N2CC3(CN(C)C3)C2)cc1)=C1/C(=O)Nc2ccc(C(=O)NC[C@H]3CCCO3)cc21` [Example 66] was tested, and the IC50 (ULK1 kinase) was no more than 10 nM, the IC50 (ULK2 kinase) was 10 to 100 nM and the IC50 [1] was no more than 100 nM.
Compound `CC/C(Nc1ccc(N2CC3CC(C2)N3C)cc1)=C1/C(=O)Nc2ccc(C(=O)NCC(C)C)cc21` [Example 67] has an IC50 (ULK1 kinase) of no more than 10 nM, an IC50 (ULK2 kinase) of 10 to 100 nM and an IC50 [1] of no more than 100 nM.
`CC/C(Nc1ccc(N2CC3CC(C2)N3C)cc1)=C1/C(=O)Nc2ccc(C(=O)NC[C@H]3CCCO3)cc21` [Example 68] showed an IC50 (ULK1 kinase) of no more than 10 nM, an IC50 (ULK2 kinase) of 10 to 100 nM and an IC50 [1] of no more than 100 nM.
In the case of `CC/C(Nc1ccc(N2CC3CC2CN3C)cc1)=C1/C(=O)Nc2ccc(C(=O)NCC(C)C)cc21` (stereo not drawn) [Example 69], the IC50 (ULK1 kinase) is reported as no more than 10 nM, the IC50 (ULK2 kinase) is reported as 10 to 100 nM and the IC50 [1] is reported as no more than 100 nM.
`CC/C(Nc1ccc(N2CC3CC2CN3C)cc1)=C1/C(=O)Nc2ccc(C(=O)NC[C@H]3CCCO3)cc21` (stereo partly drawn) [Example 70] gave an IC50 (ULK1 kinase) of no more than 10 nM, an IC50 (ULK2 kinase) of 10 to 100 nM and an IC50 [1] of no more than 100 nM.
For `CC/C(Nc1ccc(N2CC3CC2CN3C)cc1)=C1/C(=O)Nc2ccc(C(=O)NCC(F)(F)F)cc21` (stereo not drawn) [Example 71], the IC50 (ULK1 kinase) was no more than 10 nM, the IC50 (ULK2 kinase) was 10 to 100 nM and the IC50 [1] was no more than 100 nM.
`CC/C(Nc1ccc(N2CCN(C)CC2)nc1)=C1/C(=O)Nc2ccc(C(=O)NCC(F)(F)F)cc21` [Example 74] gave an IC50 (ULK1 kinase) of 10 to 100 nM, an IC50 (ULK2 kinase) of 100 to 500 nM and an IC50 [1] of 100 to 300 nM.
`CC/C(Nc1ccc(N2CCN(C)CC2)cn1)=C1/C(=O)Nc2ccc(C(=O)NCC(F)(F)F)cc21` [Example 75] gave an IC50 (ULK1 kinase) of no more than 10 nM, an IC50 (ULK2 kinase) of no more than 10 nM and an IC50 [1] of 100 to 300 nM.
Compound `CC/C(Nc1cnn(C)c1)=C1/C(=O)Nc2ccc(C(=O)NCC(F)(F)F)cc21` [Example 77] has an IC50 (ULK1 kinase) of no more than 10 nM, an IC50 (ULK2 kinase) of 10 to 100 nM and an IC50 [1] of 100 to 300 nM.
In the case of `CC/C(Nc1ccc(-c2nc(C)no2)cc1)=C1/C(=O)Nc2ccc(C(=O)NCC(F)(F)F)cc21` [Example 78], the IC50 (ULK1 kinase) is reported as 10 to 100 nM, the IC50 (ULK2 kinase) is reported as 10 to 100 nM and the IC50 [1] is reported as 300 to 600 nM.
`CC/C(Nc1ccc(-c2cn(C)nn2)cc1)=C1/C(=O)Nc2ccc(C(=O)NCC(F)(F)F)cc21` [Example 79] showed an IC50 (ULK1 kinase) of 10 to 100 nM, an IC50 (ULK2 kinase) of 10 to 100 nM and an IC50 [1] of 300 to 600 nM.
`CC/C(Nc1cnn(C2CCN(C(C)C)CC2)c1)=C1/C(=O)Nc2ccc(C(=O)NC[C@H]3CC(F)(F)CO3)cc21` [Example 80] was tested, and the IC50 (ULK1 kinase) was no more than 10 nM, the IC50 (ULK2 kinase) was no more than 10 nM and the IC50 [1] was no more than 100 nM.
`CC/C(Nc1cnn(C2CCN(C(C)C)CC2)c1)=C1/C(=O)Nc2ccc(C(=O)NCCOC(F)(F)F)cc21` [Example 82] showed an IC50 (ULK1 kinase) of no more than 10 nM, an IC50 (ULK2 kinase) of no more than 10 nM and an IC50 [1] of 300 to 600 nM.
`CC/C(Nc1cnn(C2CCN(C(C)C)CC2)c1)=C1/C(=O)Nc2ccc(C(=O)NC[C@H]3CCCCO3)cc21` [Example 83] was tested, and the IC50 (ULK1 kinase) was no more than 10 nM, the IC50 (ULK2 kinase) was 10 to 100 nM and the IC50 [1] was no more than 100 nM.
For `CC/C(Nc1cnn(C2CC3(C2)CN(C)C3)c1)=C1/C(=O)Nc2ccc(C(=O)NCC(F)(F)F)cc21` [Example 84], the IC50 (ULK1 kinase) was no more than 10 nM, the IC50 (ULK2 kinase) was no more than 10 nM and the IC50 [1] was greater than 600 nM.
`CC/C(Nc1ccc(N2CC3(COC3)C2)cc1)=C1/C(=O)Nc2ccc(C(=O)NCC(F)(F)F)cc21` [Example 85] showed an IC50 (ULK1 kinase) of 10 to 100 nM, an IC50 (ULK2 kinase) of 10 to 100 nM and an IC50 [1] of 300 to 600 nM.
`CC/C(Nc1cnn(C2CN(C)C2)c1)=C1/C(=O)Nc2ccc(C(=O)NCC(F)(F)F)cc21` [Example 86] was tested, and the IC50 (ULK1 kinase) was no more than 10 nM, the IC50 (ULK2 kinase) was 10 to 100 nM and the IC50 [1] was 300 to 600 nM.
In the case of `CC/C(Nc1cnn(C2CN(C)C2)c1)=C1/C(=O)Nc2ccc(C(=O)NCC(C)C)cc21` [Example 87], the IC50 (ULK1 kinase) is reported as 10 to 100 nM, the IC50 (ULK2 kinase) is reported as 10 to 100 nM and the IC50 [1] is reported as 300 to 600 nM.
Work on `CC/C(Nc1cnn(C2CN(C3CCC3)C2)c1)=C1/C(=O)Nc2ccc(C(=O)NC[C@H]3CCCO3)cc21` [Example 88] yielded an IC50 (ULK1 kinase) of no more than 10 nM, an IC50 (ULK2 kinase) of 10 to 100 nM and an IC50 [1] of 100 to 300 nM.
`CC/C(Nc1cnn(C2CN(C)C2)c1)=C1/C(=O)Nc2ccc(C(=O)NCCOC)cc21` [Example 89] was tested, and the IC50 (ULK1 kinase) was 10 to 100 nM, the IC50 (ULK2 kinase) was 100 to 500 nM and the IC50 [1] was greater than 600 nM.
`CC/C(Nc1cnn(C2CN(CC)C2)c1)=C1/C(=O)Nc2ccc(C(=O)NC[C@H]3CCCO3)cc21` [Example 90] was tested, and the IC50 (ULK1 kinase) was no more than 10 nM, the IC50 (ULK2 kinase) was 10 to 100 nM and the IC50 [1] was 300 to 600 nM.
`CC/C(Nc1cnn(C2CN(C(C)C)C2)c1)=C1/C(=O)Nc2ccc(C(=O)NC[C@H]3CCCO3)cc21` [Example 91] gave an IC50 (ULK1 kinase) of no more than 10 nM, an IC50 (ULK2 kinase) of 10 to 100 nM and an IC50 [1] of 100 to 300 nM.
Compound `CC/C(Nc1ccc(N2CCN(C(C)C)CC2)cn1)=C1/C(=O)Nc2cc(F)c(C(=O)NCC(F)(F)F)cc21` [Example 92] has an IC50 (ULK1 kinase) of 100 to 500 nM, an IC50 (ULK2 kinase) of 100 to 500 nM and an IC50 [1] of no more than 100 nM.
